Data set [1] has as its system P388/0 tumor cells (lymphocytic leukemia). Briefly: Lymphocytic Leukemia P388/0 Test (survival of tumor-bearing mice). The class given is in vivo, mouse (CD2-F1). Particulars: ip, days 1, 5, 9; at optimal dose (mg/kg): 1B 121; 1C 115; 2 100; 3 100; 6G 65; 18B 88; 19H 110; 6H 60; 7 110; 9 300; 10B 1013; 11C 150; 12G 90; 5F 225; 13D 303; 14 196; 15B 250; 16 1012; 4B 180; active if ≥120%. The text has this:
(§1) Methods for evaluating the antitumor activity of these compounds are essentially those used in the Tumor Panel by the Developmental Therapeutics Program, Division of Cancer Treatment, National Cancer Institute, A. Goldin, et al., Methods in Cancer Research, Vol. XVI, p. 165, Academic Press (1979). Some modifications, in dose level and schedule have been made to increase the testing efficiency.
(§2) CD2-F1 mice, of the same sex, weighing 20±3 g, are used for this test. Control and test animals are injected intraperitoneally with a suspension of ~10^6 viable P388/0 tumor cells on day 0. In each test, several dose levels which bracket the LD20 of the compound are evaluated; each dose level group contains six animals. The test compounds are prepared either in physiologic saline containing 0.05% Tween 80 or distilled water containing 5% dextrose and are administered intraperitoneally on days 1, 5, and 9 relative to tumor implant. Doses are on a mg/kg basis according to individual animals' body weights. The day of death for each animal is recorded, the median identified for each group and the ratios of median survival time for treated (T)/control (C) groups are calculated. The criterion for activity is T/C×100≥120%.

The nature of another data set: LD20 in the P388/0 test. Particulars: ip, days 1, 5 and 9. The class given is in vivo, mouse (CD2-F1). As for the experimental part: as §2
^A Values in parentheses are the highest nontoxic dose where the
LD20 was not determined.

Another data set has as its system B16 melanoma cells. Briefly: Melanotic Melanoma B16 test (survival). The format is in vivo, mouse (B6C3-F1). Particulars: B16 ip; drug ip days 1, 5, 9; dose (mg/kg): 1C 100; 6G 50; 3 70; 2 75; 18B 70; active if >125%.
From the text: as §1
B6C3-F1 mice of the same sex, weighing 20±3 g, are used for this test. A suspension of B16 cells is prepared from a non-necrotic portion of solid tumor tissue obtained from a passage mouse. One gram of tumor is homogenized in 9 mL ice-cold Earle's salts solution and filtered through 1000 mesh screen to remove debris. 0.5 mL of the resulting brei is injected intraperitoneally into each animal. Dosing is carried out as in the P388/0 and L1210 tests. Days of death are recorded for a 60 day period and T/C ratio calculated as in the P388/0 and L1210 tests. The criterion for activity is T/C×100>125%.

In another data set the test system is Colon 38 carcinoma. Briefly: Colon 38 Carcinoma Test (tumor weight). The class given is in vivo, mouse (tumor from C57B1/6). Particulars: ip, days 1, 5, 9; dose 120 mg/kg; day 20; active if ≤42%.
From the text: as §1
This chemically-induced tumor arose in a C57B1/6 mouse and is maintained as a solid tumor in that mouse strain. The subcutaneously growing solid tumor is aseptically excised from passage mice and placed in sterile saline. The tumor is trimmed free of visible necrotic and connective tissue, then divided into 2-3 mm cubes. A cube is implanted subcutaneously in the ventral thoracic region with a sterile trochar on day 0. In each test several dose levels which bracket the LD20 for the compound are evaluated. Ten animals are included in each dose level group and thirty animals in the untreated control group. The test compounds are prepared either in physiologic saline containing 0.05% Tween 80 or distilled water containing 5% dextrose and are administered intraperitoneally on days 1, 5 and 9 after tumor implant. […] At day 20, the animals are sacrificed and the longest (L) and shortest (W) dimensions of each tumor measured with vernier calipers. Tumor weight is calculated from the formula [formula] […]

Counter-ions that a name gives are not always drawn.

As for `C[C@@H](O)C(C)(NCc1cc2c3ccccc3ccc2c2ccccc12)[C@@H](C)O` (relative stereo) [Example 5F], the “T/C × 100% (Excluding 30 Day Survivors), median survival time treated/control” value in data set [1] is reported as “+255%”.
Turning to `C[C@H](O)[C@@](C)(CO)NCc1cc2c3ccccc3ccc2c2ccccc12` (relative stereo) [Example 6G, (+-)(2R*,3S*)-2-((6-chrysenylmethyl)amino)-2-methyl-1,3-butanediol hydrochloride.1/3H2 O], in the data set “LD20 in the P388/0 test”, the LD20 amounted to 53 mg/kg. Further, the “T/C × 100% (Excluding 30 Day Survivors), median survival time treated/control” value in data set [1] was “+245%”. Moreover, in the data set on B16 melanoma cells, the “T/C × 100% Excluding 60 day Survivors” value was “+160%”.
`CS(=O)(=O)O.C[C@H](O)[C@@](C)(CO)NCc1cc2c3ccccc3ccc2c2ccccc12` (relative stereo) [Example 6H, (+-)(2R*,3S*)-2-((6-chrysenylmethyl)amino)-2-methyl-1,3-butanediol methanesulfonate] had an LD20 in “LD20 in the P388/0 test” of 60 mg/kg. In data set [1], the “T/C × 100% (Excluding 30 Day Survivors), median survival time treated/control” value is recorded as “+235%”.
For the compound `C[C@@H](O)[C@@](C)(CO)NCc1cc2c3ccccc3ccc2c2ccccc12.Cl` (relative stereo) [Example 7, (+-)-(2R*,3R*)-2-((6-chrysenylmethyl)amino)-2-methyl-1,3-butanediol hydrochloride], the LD20 in the data set “LD20 in the P388/0 test” is recorded as 100 mg/kg. Besides, the “T/C × 100% (Excluding 30 Day Survivors), median survival time treated/control” value in data set [1] was “+285%”.
For `CC(CO)(CO)NCc1cc2c3ccccc3ccc2c2ccccc12.Cl` [Example 1B, 2-((6-chrysenylmethyl)amino)-2-methyl-1,3-propanediol hydrochloride], the LD20 in “LD20 in the P388/0 test” is 140 mg/kg.
As to `CC(CO)(CO)NCc1cc2c3ccccc3ccc2c2ccccc12` [Example 1C, 2-((6-chrysenylmethyl)amino)-2-methyl-1,3-propanediol methanesulfonate], the “T/C × 100% (tumor weight)” value with Colon 38 carcinoma is reported as 36%.
`Cl.OCC(CO)(CO)NCc1cc2c3ccccc3ccc2c2ccccc12` [Example 2, 2-((6-chrysenylmethyl)amino)-2-hydroxymethyl-1,3-propanediol hydrochloride]: the LD20 in the data set “LD20 in the P388/0 test” was 100 mg/kg.
In “LD20 in the P388/0 test”, `CCC(CO)(CO)NCc1cc2c3ccccc3ccc2c2ccccc12.Cl` [Example 3, 2-((6-chrysenylmethyl)amino)-2-ethyl-1,3-propanediol hydrochloride] had an LD20 of 100 mg/kg.
As to `CC(CO)(CO)NCc1cc2c3ccccc3c(Cl)cc2c2ccccc12` [Example 4B, 2-(((12-chloro-6-chrysenyl)methyl)amino)-2-methyl-1,3-propanediol methanesulfonate.1/3H2 O], the LD20 in the data set “LD20 in the P388/0 test” was determined as 180 mg/kg. The “T/C × 100% (Excluding 30 Day Survivors), median survival time treated/control” value in data set [1] was “+155%”.
As to `COCC(C)(CO)NCc1cc2c3ccccc3ccc2c2ccccc12.Cl` (stereo not drawn) [Example 9D, 3-methoxy-2-((6-chrysenylmethyl)amino)-2-methyl-1-propanol hydrochloride], the “T/C × 100% (Excluding 30 Day Survivors), median survival time treated/control” value in data set [1] is on record as “+181%”.
On the same count and under the same terms, the value for `O[C@@H]1CCC[C@H](O)[C@H]1NCc1cc2c3ccccc3ccc2c2ccccc12` [Example 10B, (1α,2β,3α)-2-((6-chrysenylmethyl)amino)-1,3-cyclohexanediol hydrochloride] was “+205%”.
In the data set “LD20 in the P388/0 test”, `CC(C)C(CO)(CO)NCc1cc2c3ccccc3ccc2c2ccccc12` [Example 11C, 2-((6-chrysenylmethyl)amino)-2-isopropyl-1,3-propanediol hydrochloride.H2 O] yielded an LD20 of 150 mg/kg.
Still for that read-out and setting: with `CC(CO)(CCO)NCc1cc2c3ccccc3ccc2c2ccccc12` (stereo not drawn) [Example 12G, 2-((6-chrysenylmethyl)amino)-2-methyl-1,4-butanediol hydrochloride.1/3EtOH] the figure was 90 mg/kg.
With `CS(=O)(=O)O.C[C@H](O)C(NCc1cc2c3ccccc3ccc2c2ccccc12)[C@@H](C)O` (stereo partly drawn) [Example 13D, meso-3-((6-chrysenylmethyl)amino)-2,4-pentanediol methanesulfonate], in data set [1], the “T/C × 100% (Excluding 30 Day Survivors), median survival time treated/control” value is on record as “+200%”.
As to `OCC(CO)NCc1cc2c3ccccc3ccc2c2ccccc12` [Example 14, 2-((6-chrysenylmethyl)amino)-1,3-propanediol methanesulfonate], the LD20 in the data set “LD20 in the P388/0 test” was 160 mg/kg.
Same read-out and setting: with `CCc1cc2c3ccccc3c(CNC(C)(CO)CO)cc2c2ccccc12` [Example 15B, 2-(((12-ethyl-6-chrysenyl)methyl)amino)-2-methyl-1,3-propanediol methanesulfonate] the figure was 150 mg/kg.
As for `CC(=O)OCC(C)(COC(C)=O)NCc1cc2c3ccccc3ccc2c2ccccc12` [Example 16, 2-((6-chrysenylmethyl)amino)-2-methyl-1,3-propanediol diacetate], the “T/C × 100% (Excluding 30 Day Survivors), median survival time treated/control” value in data set [1] is reported as “+145%”.
The compound `CC(C)(CO)NCc1cc2c3ccccc3ccc2c2ccccc12.Cl` [Example 18B, 2-((6-chrysenylmethyl)amino)-2-methyl-1-propanol hydrochloride] yielded an LD20 in the data set “LD20 in the P388/0 test” of 80 mg/kg.
On the same count and under the same terms, with `CC(CO)(CO)NCc1ccc2ccc3c4ccccc4ccc3c2c1` [Example 19H, 2-((3-chrysenylmethyl)amino)-2-methyl-1,3-propanediol methanesulfonate] the figure was 150 mg/kg.
